# Literature values, collected in patent US20080070991A1 (priority 2006, published 2008).
# Tested on: stilbene synthase
# Conditions: Barbera cell suspensions treated with 10 μm methyljasmonate
smiles,measurement,value
"CC/C=C\CC1C(=O)CCC1CC(=O)OC (stereo not shown) [methyljasmonate, Methyljasmonate]",stilbene synthase expression (gel analysis),up-regulation of the stilbene synthase
